Literature values in publication PMC6940698.

Test: not told

## O=C(O)c1cc(S(=O)(=O)O)ccc1O
  log partition benzene / water: 0.34 ratio
  log partition toluene / water: 0.26 ratio
  log partition xylene / water: 0.23 ratio
